Biological target: T1, full length active recombinant SYK enzyme (Homo sapiens, UniProt P43405)
T1 construct: full length active recombinant SYK enzyme (Millipore, Calif.); purchased Millipore
Experiment: Inhibition of Syk tyrosine phosphorylation activity (LANCE TR-FRET kinase assay)
Assay type: biochemical
Settings: activity in the Syk assays, class symbols
Description: The in vitro and in vivo human Syk activities of the inventive compounds can be determined by various procedures known in the art, such as a test for their ability to inhibit the activity of human plasma Syk. […] The IC50 value is the concentration (in nM) of the compound required to provide 50% inhibition of human Syk proteolytic activity.
An in vitro assay for detecting and measuring inhibition activity against Syk is as follows:
Inhibition of Syk Tyrosine Phosphorylation Activity
Potency of candidate molecules for inhibiting Syk tyrosine phosphorylation activity is assessed by measuring the ability of a test compound to inhibit Syk-mediated tyrosine phosphorylation of a Syk-specific substrate.
SYK tyrosine phosphorylation activity is measured using the LANCE™ Technology developed by Perkin Elmer Life and Analytical Sciences (Boston, Mass.). LANCE™ refers to homogeneous time resolved fluorometry applications using techniques such as time-resolved fluorescence resonance energy transfer assay (TR-FRET) (see generally for procedures in Perkin Elmer Application Note-How to Optimize a Tyrosine Kinase Assay Using Time Resolved Fluorescence-Based LANCE Detection, wwww.perkinelmer.com/lifesciences). The assay principle involves detection of a phosphorylated substrate using energy transfer from a phosphospecific europium-labeled antibody to streptavidin-allophycocyanin as an acceptor.
To test the ability of candidate molecules to inhibit SYK tyrosine phosphorylation activity, molecules are reconstituted in 30% DMSO and serially diluted 1:3 with the final dilution containing DMSO in the absence of the candidate molecule. The final DMSO concentration in the assay is 3%. Kinase assays are performed as a two part reaction. The first reaction is a kinase reaction and which comprises of a candidate molecule, full length active recombinant SYK enzyme (Millipore, Calif.) and biotin-labeled SYK-specific substrate biotin-DEEDYESP-OH. The second reaction involves termination of the kinase reaction and the simultaneous addition of the detection reagents-europium-labeled anti-phosphotyrosine reagent (Eu-W1024-PY100, Perkin Elmer, Boston, Mass.) and Streptavidin-Allophycocyanin detection reagent (SA-APC, Prozyme, CA). The kinase reaction is performed in a black U-bottom 96-well microtitre plate. The final reaction volume is 50 μL and contains a final concentration of 1 nM active SYK enzyme, 550 nM SYK-substrate, and 100 μM ATP diluted in a buffer containing 50 mM Tris pH 7.5, 5 mM MgCl2, and 1 mM DTT. The reaction is allowed to proceed for 1 hour at room temperature. The quench buffer contains 100 mM Tris pH 7.5, 300 mM NaCl2, 20 mM EDTA, 0.02% Brij35, and 0.5% BSA. The detection reagents are added to the reaction mixture at the following dilutions-1:500 for Eu-W1024-PY100 and 1:250 for SA-APC. The kinase reaction is terminated by the addition of 50 μL quench buffer containing the detection reagents. The detection is allowed to proceed for 1 hr at room temperature. Detection of the phosphorlated substrate in the absence and presence of inhibitors is measured in the TR-FRET instrument, Analyst HT (Molecular Probes, Sunnyvale, Calif.) and the condition for measurements are set up using CriterionHost Release 2.0 (Molecular Probes, Sunnyvale, Calif.). The settings used are a follows: excitation 360 nm, emission 665-7.5 nm, beam splitter 350 nm 50/50, flash 100 pulses, delay 60 us, integration 400 us, z-height 2 mm. Inhibition of SYK-tyrosine kinase activity is calculated as the maximum response observed in the presence of inhibitor, compared to that in the absence of inhibitor. IC50s were derived by non-linear regression analysis.

| IC50 [nM] | SMILES |
| --- | --- |
| < 1 | NC(=O)c1ncc(N[C@@H]2CCCC[C@@H]2N)nc1Nc1snc2sccc12 [Example 252, 5-((1R,2S)-2-aminocyclohexylamino)-3-(thieno[2,3-c]isothiazol-3-ylamino)pyrazine-2-carboxamide] |
| 10 to 100 | CC(C)[C@@H](Nc1cnc(C(N)=O)c(Nc2ccc(S(C)(=O)=O)cc2)n1)C(N)=O [Example 160, (R)-5-(1-amino-3-methyl-1-oxobutan-2-ylamino)-3-(4-(methylsulfonyl)phenylamino)pyrazine-2-carboxamide] |
| 10 to 100 | CC[C@@H](Nc1cnc(C(N)=O)c(Nc2ccc(C3CC3)nc2)n1)C(N)=O [Example 341, (R)-5-(1-amino-1-oxobutan-2-ylamino)-3-(6-cyclopropylpyridin-3-ylamino)pyrazine-2-carboxamide] |
| 10 to 100 | CC[C@@H](Nc1cnc(C(N)=O)c(Nc2cccnc2)n1)C(N)=O [Example 181, (R)-5-(1-amino-1-oxobutan-2-ylamino)-3-(pyridin-3-ylamino)pyrazine-2-carboxamide] |
| 10 to 100 | NC(=O)c1ncc(N[C@@H]2CCCC(F)(F)[C@@H]2N)nc1Nc1cccc(-n2nccn2)c1 [Example 15, 3-(3-(2H-1,2,3-triazol-2-yl)phenylamino)-5-((1R,2R)-2-amino-3,3-difluorocyclohexylamino)pyrazine-2-carboxamide] |
| 1 to 10 | CC[C@@H](Nc1cnc(C(N)=O)c(Nc2ccc(C(=O)N3CC(C#N)C3)nc2)n1)C(N)=O [Example 329, (R)-5-(1-amino-1-oxobutan-2-ylamino)-3-(6-(3-cyanoazetidine-1-carbonyl)pyridin-3-ylamino)pyrazine-2-carboxamide] |
| 1 to 10 | NC(=O)c1ncc(N[C@@H]2CCCC[C@@H]2N)nc1Nc1cnc2ccncc2c1 [Example 433, 3-((1,6-naphthyridin-3-yl)amino)-5-(((1R,2S)-2-aminocyclohexyl)amino)pyrazine-2-carboxamide] |
| 1 to 10 | CC(C)C[C@@H](Nc1cnc(C(N)=O)c(Nc2ccc(C(=O)N3CCC3)nc2)n1)C(N)=O [Example 282, (R)-5-(1-amino-4-methyl-1-oxopentan-2-ylamino)-3-(6-(azetidine-1-carbonyl)pyridin-3-ylamino)pyrazine-2-carboxamide] |
| 1 to 10 | CC(C)(C)[C@@H](Nc1cnc(C(N)=O)c(Nc2cc(C3CC3)ns2)n1)C(N)=O [Example 244, (R)-5-(1-amino-3,3-dimethyl-1-oxobutan-2-ylamino)-3-(3-cyclopropylisothiazol-5-ylamino)pyrazine-2-carboxamide] |
| 10 to 100 | NC(=O)c1ncc(N[C@@H]2CCCC[C@@H]2N)nc1Nc1cc(C(=O)N2CCCC2)ccc1F [Example 289, 5-((1R,2S)-2-aminocyclohexylamino)-3-(2-fluoro-5-(pyrrolidine-1-carbonyl)phenylamino)pyrazine-2-carboxamide] |
| 1 to 10 | CN(C)c1nc2ccc(Nc3nc(N[C@@H]4CCCC[C@@H]4N)cnc3C(N)=O)cc2o1 [Example 325, 5-((1R,2S)-2-aminocyclohexylamino)-3-(2-(dimethylamino)benzo[d]oxazol-6-ylamino)pyrazine-2-carboxamide] |
| 1 to 10 | CN1C(=O)Cc2cc(Nc3nc(N[C@@H]4CCCC[C@@H]4N)cnc3C(N)=O)ccc21 [Example 324, 5-((1R,2S)-2-aminocyclohexylamino)-3-(1-methyl-2-oxoindolin-5-ylamino)pyrazine-2-carboxamide] |
| 10 to 100 | CC[C@@H](Nc1cnc(C(N)=O)c(Nc2cnc3cccnc3c2)n1)C(N)=O [Example 383, (R)-3-(1,5-naphthyridin-3-ylamino)-5-(1-amino-1-oxobutan-2-ylamino)pyrazine-2-carboxamide] |
| 1 to 10 | NC(=O)c1ncc(N[C@@H]2CCCC[C@@H]2N)nc1Nc1ccc(-n2cccn2)cc1 [Example 276, 3-(4-(1H-pyrazol-1-yl)phenylamino)-5-((1R,2S)-2-aminocyclohexylamino)pyrazine-2-carboxamide] |
| < 1 | NC(=O)c1ncc(N[C@@H]2CCOC[C@@H]2N)nc1Nc1cccc(-n2nccn2)c1 [Example 81, 3-(3-(2H-1,2,3-triazol-2-yl)phenylamino)-5-((3R,4R)-3-aminotetrahydro-2H-pyran-4-ylamino)pyrazine-2-carboxamide] |
| 1 to 10 | CCc1cc(Nc2nc(N[C@H](CC)C(N)=O)cnc2C(N)=O)sn1 [Example 221, (R)-5-(1-amino-1-oxobutan-2-ylamino)-3-(3-ethylisothiazol-5-ylamino)pyrazine-2-carboxamide] |
| 1 to 10 | CC[C@@H](Nc1cnc(C(N)=O)c(Nc2cncc3ccccc23)n1)C(N)=O [Example 367, (R)-5-(1-amino-1-oxobutan-2-ylamino)-3-(isoquinolin-4-ylamino)pyrazine-2-carboxamide] |
| 10 to 100 | CC(C)(C)[C@@H](Nc1cnc(C(N)=O)c(Nc2ccc3cccnc3c2)n1)C(N)=O [Example 235, (R)-5-(1-amino-3,3-dimethyl-1-oxobutan-2-ylamino)-3-(quinolin-7-ylamino)pyrazine-2-carboxamide] |
| 10 to 100 | CC[C@@H](Nc1cnc(C(N)=O)c(Nc2ccc(N(C)C)nc2)n1)C(N)=O [Example 310, (R)-5-(1-amino-1-oxobutan-2-ylamino)-3-(6-(dimethylamino)pyridin-3-ylamino)pyrazine-2-carboxamide] |
| 1 to 10 | COc1ccc(Nc2nc(N[C@@H]3CCCC[C@@H]3N)cnc2C(N)=O)cc1OC [Example 142, 5-((1R,2S)-2-aminocyclohexylamino)-3-(3,4-dimethoxyphenylamino)pyrazine-2-carboxamide] |
| 1 to 10 | NC(=O)c1ncc(N[C@H](Cc2cccs2)C(N)=O)nc1Nc1cnc2cccnc2c1 [Example 409, (R)-3-(1,5-naphthyridin-3-ylamino)-5-(1-amino-1-oxo-3-(thiophen-2-yl)propan-2-ylamino)pyrazine-2-carboxamide] |
| 1 to 10 | CC(C)C[C@@H](Nc1cnc(C(N)=O)c(Nc2ccc(C3CC3)nc2)n1)C(N)=O [Example 348, (R)-5-(1-amino-4-methyl-1-oxopentan-2-ylamino)-3-(6-cyclopropylpyridin-3-ylamino)pyrazine-2-carboxamide] |
| 10 to 100 | Cc1cc(Nc2nc(NC3(C(N)=O)CCCCC3)cnc2C(N)=O)sn1 [Example 401, 5-(1-carbamoylcyclohexylamino)-3-(3-methylisothiazol-5-ylamino)pyrazine-2-carboxamide] |
| 1 to 10 | CC[C@@H](Nc1cnc(C(N)=O)c(Nc2cccc3c2ccn3C)n1)C(N)=O [Example 394, (R)-5-(1-amino-1-oxobutan-2-ylamino)-3-(1-methyl-1H-indol-4-ylamino)pyrazine-2-carboxamide] |
| 10 to 100 | CC[C@@H](Nc1cnc(C(N)=O)c(Nc2ccc(OC)nc2)n1)C(N)=O [Example 317, (R)-5-(1-amino-1-oxobutan-2-ylamino)-3-(6-methoxypyridin-3-ylamino)pyrazine-2-carboxamide] |
| 1 to 10 | CS(=O)(=O)c1ccc(Nc2nc(N[C@@H]3CCCC[C@@H]3N)cnc2C(N)=O)cc1 [Example 153, 5-((1R,2S)-2-aminocyclohexylamino)-3-(4-(methylsulfonyl)phenylamino)pyrazine-2-carboxamide] |
| 1 to 10 | CNC1(CNc2cnc(C(N)=O)c(Nc3ccc4ncccc4c3)n2)CC1 [Example 129, 5-(((1-(methylamino)cyclopropyl)methyl)amino)-3-(quinolin-6-ylamino)pyrazine-2-carboxamide] |

| SMILES | IC50 [nM] |
| --- | --- |
| NC(=O)c1ncc(N[C@@H]2CCCC(F)(F)[C@@H]2N)nc1Nc1ccnc(OC2CCC2)c1 [Example 356, 5-((1R,2R)-2-amino-3,3-difluorocyclohexylamino)-3-(2-cyclobutoxypyridin-4-ylamino)pyrazine-2-carboxamide] | 10 to 100 |
